Results on one compound are retold here after the NIST ThermoML archive (doi:10.1021/acs.jced.8b00720).

For data set [1] the following is noted: Crystal; DSC.
The nature of data set [2]: Molar enthalpy of transition or fusion. The settings on record: Crystal; DSC.

Molecules are shown by their SMILES. ± gives the expanded uncertainty stated by the source.

As for `CC[C@@H](C(N)=O)N1CCCC1=O` [(S)-2-(2-oxopyrrolidin-1-yl)butanamide], in data set [1], the Triple point temperature amounted to 389.85 ± 1.2 K. For the same compound, the “Molar enthalpy of transition or fusion” value in data set [2] came to 7.07 ± 0.239 kcal/mol.
